Source: US8115005B2, “Pyrazolylphenyl and pyrrolylphenyl inhibitors of LTA4H for treating inflammation” (Decode Genetics EHF., priority 2006, dated 2012)
Where a name gives a salt, the structure may show the parent alone.

Legend:
[1] = target: T1, recombinant human LTA4 hydrolase (Homo sapiens, UniProt P09960); test: In vitro assay testing inhibitory activity against purified recombinant human LTA4 hydrolase; assay type: biochemical; conditions: LTB4 formation; table does not say which of the two described assays (enzyme or human whole blood)
T1 construct: A human LTA4 hydrolase full-length cDNA clone (NM_000895) was purchased from OriGene Technologies; own knowledge that pDEST17 adds an N-terminal 6xHis, consistent with the Ni-NTA purification) (N); made in house; host or cells: Escherichia coli BL21-AI
T1 sequence (P09960 1-611): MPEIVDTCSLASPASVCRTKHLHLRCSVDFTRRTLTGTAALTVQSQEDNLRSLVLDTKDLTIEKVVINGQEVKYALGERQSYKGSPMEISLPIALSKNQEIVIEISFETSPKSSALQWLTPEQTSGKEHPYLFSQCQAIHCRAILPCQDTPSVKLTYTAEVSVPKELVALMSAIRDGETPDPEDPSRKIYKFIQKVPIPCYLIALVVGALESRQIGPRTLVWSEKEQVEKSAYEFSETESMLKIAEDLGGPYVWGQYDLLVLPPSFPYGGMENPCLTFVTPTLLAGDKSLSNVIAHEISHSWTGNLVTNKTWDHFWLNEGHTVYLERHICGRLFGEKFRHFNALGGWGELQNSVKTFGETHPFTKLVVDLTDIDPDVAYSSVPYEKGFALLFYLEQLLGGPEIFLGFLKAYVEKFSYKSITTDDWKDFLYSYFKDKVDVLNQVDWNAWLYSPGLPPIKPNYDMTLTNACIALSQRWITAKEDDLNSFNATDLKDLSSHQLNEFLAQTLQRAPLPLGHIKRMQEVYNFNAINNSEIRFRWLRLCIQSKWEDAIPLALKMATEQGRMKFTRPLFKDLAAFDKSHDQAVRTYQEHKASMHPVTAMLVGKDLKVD
From the text: (1) In vitro assay testing inhibitory activity against purified recombinant human LTA4 hydroase. A human LTA4 hydrolase full-length cDNA clone (NM_000895) was purchased from OriGene Technologies (Rockville, Md.). The gene was amplified by polmerase chain reaction and transferred via pDONR201 into the bacterial expression vector pDEST17 by recombination (both plasmids from Invitrogen, Carlsbad, Calif.). The resulting construct was transformed into Escherichia coli BL21-AI (Invitrogen), and expression was induced by chemical induction with arabinose. The recombinant enzyme was purified by chromatography on an FPLC system (Amersham Biosciences, Uppsala, Sweden) using immobilized metal affinity chromatography (Ni-NTA Superflow, Qiagen, Hilden, Germany) and anion exchange chromatography (MonoQ HR 10/10, Amersham Biosciences).
The compounds of the invention were incubated in a series of dilutions with 200 nM of recombinant enzyme in assay buffer (100 mM Tris-HCl, 100 mM NaCl, 5 mg/ml fatty-acid free BSA, 10% DMSO, pH 8.0) for 10 min at room temperature to allow binding between LTA4 hydrolase and the inhibitors. LTA4 was prepared by alkaline hydrolysis of LTA4 methyl ester (Biomol, Plymouth Meeting, Pa., or Cayman Chemicals, Ann Arbor, Mich.). A solution of 10 μg of the ester was dried under a nitrogen stream and redissolved in 60 μl of a solution of 80% acetone and 20% 0.25 M NaOH. After incubation for 40 min at room temperature the resulting approximately 500 μM tock of LTA4 was kept at −80° C. for no more than a few days prior to use.
Immediately before the assay, LTA4 was diluted to a concentration of 10 μM in assay buffer (without DMSO) and added to the reaction mixture to a final concentration of 2 μM to initiate the enzyme reaction. After incubation for 120 sec at room temperature, the reaction was stopped by adding 2 volumes of chilled quenching buffer, containing acetonitril with 1% acetic acid and 225 nM LTB4-d4 (Biomol). The samples were then kept at 4° C. overnight to complete protein precipitation and centrifuged for 15 min at 1800 g. LTB4 formed was measured by LC-MS/MS using LTB4-d4 as an internal standard and an external LTB4 standard (Biomol) as reference. Based on the amounts of LTB4 found at each inhibitor concentration, a dose-response curve was fitted to the data and an IC50 value was calculated.

colitis symptoms = conditions: eight weeks of treatment, primate model of spontaneous colitis; cited from earlier work
LTA4H [2] = target: T2, LTA4H (Rattus norvegicus, UniProt P30349); conditions: oral administration, rat peritoneum in vivo; cited from earlier work
T2 construct: and in rat peritoneum in vivo; host or cells: rat peritoneum (in vivo, after oral dosing)
T2 sequence (P30349 1-611): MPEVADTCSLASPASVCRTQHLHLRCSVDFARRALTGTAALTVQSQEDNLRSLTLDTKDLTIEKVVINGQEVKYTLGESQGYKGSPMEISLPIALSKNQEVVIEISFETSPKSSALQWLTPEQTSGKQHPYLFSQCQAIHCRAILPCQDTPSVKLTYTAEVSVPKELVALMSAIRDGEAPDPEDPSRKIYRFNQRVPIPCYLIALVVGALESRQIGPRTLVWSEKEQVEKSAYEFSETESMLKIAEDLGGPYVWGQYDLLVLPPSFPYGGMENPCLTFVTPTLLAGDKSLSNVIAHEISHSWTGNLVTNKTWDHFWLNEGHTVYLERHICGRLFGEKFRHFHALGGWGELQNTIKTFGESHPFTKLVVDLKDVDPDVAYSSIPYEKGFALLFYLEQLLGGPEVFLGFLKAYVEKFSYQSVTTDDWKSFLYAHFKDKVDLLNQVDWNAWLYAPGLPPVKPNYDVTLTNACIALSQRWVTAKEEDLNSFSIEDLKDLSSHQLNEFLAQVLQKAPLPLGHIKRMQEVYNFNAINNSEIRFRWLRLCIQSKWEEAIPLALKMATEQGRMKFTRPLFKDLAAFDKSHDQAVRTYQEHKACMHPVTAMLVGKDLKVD

LTA4H [3] = target: T3, LTA4H (Mus musculus, UniProt P24527); conditions: oral administration, mouse blood ex vivo; cited from earlier work
T3 construct: host or cells: mouse blood (ex vivo, after oral dosing)
T3 sequence (P24527 1-611): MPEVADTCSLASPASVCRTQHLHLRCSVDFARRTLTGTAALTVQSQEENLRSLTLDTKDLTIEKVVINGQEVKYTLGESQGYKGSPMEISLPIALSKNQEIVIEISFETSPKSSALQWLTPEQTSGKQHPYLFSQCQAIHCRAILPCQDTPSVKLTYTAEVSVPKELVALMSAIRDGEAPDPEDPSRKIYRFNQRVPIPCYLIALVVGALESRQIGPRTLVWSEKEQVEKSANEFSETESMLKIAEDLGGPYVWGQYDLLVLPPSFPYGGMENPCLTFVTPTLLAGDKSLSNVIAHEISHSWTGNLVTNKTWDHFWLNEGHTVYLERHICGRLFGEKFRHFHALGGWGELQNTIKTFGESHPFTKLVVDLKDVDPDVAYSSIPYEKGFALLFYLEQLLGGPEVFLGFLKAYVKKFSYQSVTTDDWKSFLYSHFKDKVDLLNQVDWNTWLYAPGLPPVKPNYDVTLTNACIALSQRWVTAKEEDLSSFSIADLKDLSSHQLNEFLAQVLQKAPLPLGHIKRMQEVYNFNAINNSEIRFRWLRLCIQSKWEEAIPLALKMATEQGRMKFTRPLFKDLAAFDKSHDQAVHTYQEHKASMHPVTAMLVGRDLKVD

Row | IC50 [1] [µM] | Compound | also measured
1 | < 5 | Brc1cccn1-c1ccc(OCCN2CCCCC2)cc1 [Example 9, 1-{2-[4-(2-Bromo-pyrrol-1-yl)-phenoxy]-ethyl}-piperidine] | –
2 | < 5 | O=Cc1cccn1-c1ccc(OCCN2CCCCC2)cc1 [Example 10, 1-[4-(2-Piperidin-1-yl-ethoxy)-phenyl]-1H-pyrrole-2-carbaldehyde] | –
3 | < 5 | Cc1cc(C(F)(F)F)n(-c2ccc(OCCN3CCCCC3)cc2)n1 [Example 5, 1-{2-[4-(3-Methyl-5-trifluoromethyl-pyrazol-1-yl)-phenoxy]-ethyl}-piperidine] | –
4 | 5 to 20 | Cc1ccn(-c2ccc(OCCN3CCCCC3)cc2)n1 [Example 2, 1-{2-[4-(3-Methyl-pyrazol-1-yl)-phenoxy]-ethyl}-piperidine] | –
5 | 5 to 20 | Cc1c(C(F)F)cnn1-c1ccc(OCCN2CCCCC2)cc1 [Example 6, 1-{2-[4-(4-Difluoromethyl-5-methyl-pyrazol-1-yl)-phenoxy]-ethyl}-piperidine] | –
6 | < 5 | Cc1cc(C)n(-c2ccc(OCCN3CCCCC3)cc2)n1 [Example 3, 1-{2-[4-(3,5-Dimethyl-pyrazol-1-yl)-phenoxy]-ethyl}-piperidine] | –
7 | < 5 | c1ccn(-c2ccc(OC[C@H]3CCCN3)cc2)c1 [Example 7, 1-[4-((R)-1-Pyrrolidin-2-ylmethoxy)-phenyl]-1H-pyrrole hydrochloride] | –
8 | – | CN(CCCOc1ccc(Cc2ccccc2)cc1)CCC(=O)O.Cl [SC57461] | colitis symptoms (colitis symptoms): significantly improved colitis symptoms; inhibition of ionophore-induced LTB4 production (LTA4H [2]): inhibition of ionophore-induced LTB4 production; inhibition of ionophore-induced LTB4 production (LTA4H [3]): inhibition of ionophore-induced LTB4 production
9 | 5 to 20 | c1cnn(-c2ccc(OCCN3CCCCC3)cc2)c1 [Example 1, 1-[2-(4-Pyrazol-1-yl-phenoxy)-ethyl]-piperidine] | –
10 | 5 to 20 | FC(F)(F)c1ccnn1-c1ccc(OCCN2CCCCC2)cc1 [Example 4, 1-{2-[4-(5-Trifluoromethyl-pyrazol-1-yl)-phenoxy]-ethyl}-piperidine] | –
11 | < 5 | c1ccn(-c2ccc(OCCN3CCCCC3)cc2)c1 [Example 8, 1-[2-(4-Pyrrol-1-yl-phenoxy)-ethyl]-piperidine] | –
